According to patent US20230386637A1, “Polymorphisms for Predicting Treatment Response to Antipsychotic Drugs and Identifying New Drug Targets” (Northwestern University, priority 2018, published 2023):

Legend:
[1] = system: mouse prefrontal cortex; conditions: subeffective dose of SB269970 with subeffective dose of lurasidone; awake freely moving mice; cited from earlier work
[2] = system: acutely psychotic SCZ patients; experiment: Pearl 1 and Pearl 2 six-week randomized placebo-controlled lurasidone trials, GWAS sample; type: in vivo, human
Method: The clinical trials, subjects, and genotyping. The two clinical trials used for this analysis are both six-week, randomized, double-blind, lurasidone, placebo-controlled, multicenter registration trials, of DSM-IV acutely psychotic SCZ patients (Meltzer et al., 2011b; Nasrallah et al., 2013b). Patients who met TRS criteria were excluded. There were four fixed-dose treatment arms: lurasidone 40 and 120 mg/day, another atypical APD, olanzapine, 15 mg/day, and placebo (Pearl 1) (Meltzer et al., 2011b) and lurasidone 40, 80, and 120 mg/day, and placebo (Pearl 2) (Nasrallah et al., 2013b). The percentages of patients who achieved the a priori determined response: >20% improvement in ΔPANSS-T, was 61% in both the Pearl 1 and 2 studies. A total of 171/63 Caucasian and 131/54 AA for lurasidone/placebo-treated patients consented to participate in the genetic study. Ethnicity was validated as described below.
Evaluation of treatment response. The primary measure of efficacy, ΔPANSS-Total, was the difference between baseline and last observation carried forward (LOCF) for those with at least one PANSS rating after baseline. Results could be pooled across drug dosage arms because clinical change was not dose related (data not presented). The intention-to-treat (ITT) population included 157, 73, and 156 patients who received 40, 80, and 120 mg/day doses of lurasidone, respectively. Subjects within the 30th percentiles for greatest or least improvement in PANSS-Total (referred to as best and worst responders, hereafter) were included in a secondary analysis as previously done for iloperidone (Lavedan et al., 2009).
Population stratification. […] Population stratification and separation was employed throughout the following analyses. This process yielded 234 Caucasians, 171 and 63 in the lurasidone- and placebo-treated groups, respectively. There were […], 131 and 54 in the lurasidone- and placebo groups, respectively. Adjustment using the top three PCs within each ethnic group was applied to the association tests. The QQ plots indicated no marked deviations of the observed distributions from the expected null distributions with genome inflation factor=1.00 for both ethnic groups (FIG. 1c, d). Both Kolmogorov-Smimov and Shapiro-Wilk tests indicated ΔPANSS-T followed the normal distribution with skewness and kurtosis indices between-1 and +1. Therefore, no subjects had to be excluded from the analysis.

[3] = system: acutely psychotic SCZ patients; experiment: PEARL 1, 2 and PEARL 3 six-week placebo-controlled lurasidone trials, GWAS subjects of the meta-analysis; type: in vivo, human
Source text: Participants. The three clinical trials (Loebel et al., 2013a; Meltzer et al., 2011a; Nasrallah et al., 2013) used in this analysis were six-week, randomized, double-blind, placebo-controlled, multicenter registration trials, of DSM-IV acutely psychotic SCZ patients. The primary measure of efficacy, ΔPANSS-TOT, was the difference between baseline and last observation carried forward (LOCF) for those with at least one PANSS rating at, or after two weeks of treatment, (ΔPANSS-TOTLOCF6WK=PANSSTOTLOCF6WK-PANSS-TOTBaseline). The overall mean percentage of patients who achieved a priori determined response: ≥20% improvement in ΔPANSS-TOTLOCF6WK, was 61% in the PEARL 1, 2 and 3 studies. A total of 587 subjects with valid treatment response data and verified race from two ethnic populations, EUR and AFR, gave written informed consent to participate in genetics study (368 of 545 (67.5% with EUR ancestry and 219 of 403 (54.3% with AFR ancestry). These trials included a small number of patients randomized to treatment with olanzapine (PEARL 1) or quetiapine (PEARL 3). There were too few subjects with genetic data to include them as a separate group in this analysis.
PEARL 3 was considered an independent dataset due to a significant difference in PANSS-TOTBaseline, inclusion of a higher dose of lurasidone (160 mg/d), and an unequal variance, compared to PEARL 1/2, in ΔPANSS-TOTLOCF6WK by Leven test (Table 1). Samples from the corresponding placebo groups of all three trials were pooled together due to a relatively small sample size per trial and absence of significant differences in demographic and clinical data. Thus, three groups (PEARL 1+2, PEARL 3 and Placebo) per ethnicity were independently examined for quality control (QC), PCA for genetic architectures, and GWAS analyses before determining summary statistics at the individual SNP level. Both Kolmogorov-Smimov and Shapiro-Wilk tests indicated ΔPANSS-TOTLOCF6WK followed a normal distribution with skewness and kurtosis indices between −1 and +1. Therefore, no subjects were excluded from the analysis.

[4] = in vivo; cited from earlier work
[5] = African ancestry, Pearl 1, 2, n=124
[6] = African ancestry, Pearl 3, n=34
[7] = European ancestry, Pearl 1, 2, n=165
[8] = European ancestry, Pearl 3, n=99

## CC1CCN(CC[C@H]2CCCN2S(=O)(=O)c2cccc(O)c2)CC1 [SB269970]
[1]
  effect on lurasidone-induced dopamine efflux: potentiated

## O=C1[C@@H]2[C@H]3CC[C@H](C3)[C@@H]2C(=O)N1C[C@@H]1CCCC[C@H]1CN1CCN(c2nsc3ccccc23)CC1 [lurasidone]
[2]; African-Americans, n=131
  PANSS anxiety/depression Change (LOCP): −3.3 ± 4.1
  PANSS disorganization Change (LOCF): −4.0 ± 4.4
  PANSS excited Change (LOCF): −1.2 ± 4.0
  PANSS negative Change (LOCF): −4.2 ± 4.6
  PANSS positive Change (LOCF): −5.3 ± 4.4
  PANSS total Change (LOCF): −18.0 ± 16.3
[2]; Caucasians, n=171
  PANSS anxiety/depression Change (LOCP): −2.1 ± 4.2
  PANSS disorganization Change (LOCF): −4.0 ± 4.2
  PANSS excited Change (LOCF): −1.4 ± 3.7
  PANSS negative Change (LOCF): −3.3 ± 4.8
  PANSS positive Change (LOCF): −5.1 ± 4.9
  PANSS total Change (LOCF): −15.9 ± 17.0
[2]; Caucasians, n=171, lurasidone 40/80/120 mg, baseline to LOCF, mean ± SD
  CGI Change (LOCF): −1.0 ± 1.0
[2]; both the Pearl 1 and 2 studies
  percentages of patients who achieved the a priori determined response: >20% improvement in ΔPANSS-T: 61%
[3]; [5]
  % change of Psychopathology PANSE_NEG: −13.44(22.75) %
  % change of Psychopathology PANSS_POS: −25.80(24.91) %
  % change of Psychopathology PANSS_TOT: −16.55(17.79) %
  Δ change of Psychopathology PANSS_NEG: −3.26(4.82)
  Δ change of Psychopathology PANSS_POS: −5.15(4.93)
[3]; African ancestry, Pearl 1, 2, n=124, lurasidone 40/80/120 mg/d
  Δ change of Psychopathology PANSS_TOT: −15.88(16.97)
[3]; [6]
  % change of Psychopathology PANSE_NEG: −15.66(22.26) %
  % change of Psychopathology PANSS_POS: −30.04(22.51) %
  % change of Psychopathology PANSS_TOT: −22.47(19.05) %
  Δ change of Psychopathology PANSS_NEG: −3.85(4.88)
  Δ change of Psychopathology PANSS_POS: −5.71(4.35)
[3]; African ancestry, Pearl 3, n=34, lurasidone 80/160 mg/d
  Δ change of Psychopathology PANSS_TOT: −21.95(18.15)
[3]; [7]
  % change of Psychopathology PANSS_NEG: −13.44(22.75) %
  % change of Psychopathology PANSS_POS: −25.80(24.91) %
  % change of Psychopathology PANSS_TOT: −16.55(17.79) %
  Δ change of Psychopathology PANSS_NEG: −3.26(4.82)
  Δ change of Psychopathology PANSS_POS: −5.15(4.93)
[3]; European ancestry, Pearl 1, 2, n=165, lurasidone 40/80/120 mg/d
  Δ change of Psychopathology PANSS_TOT: −15.88(16.97)
[3]; [8]
  % change of Psychopathology PANSS_NEG: −15.66(22.26) %
  % change of Psychopathology PANSS_POS: −30.04(22.51) %
  % change of Psychopathology PANSS_TOT: −22.47(19.05) %
  Δ change of Psychopathology PANSS_NEG: −3.85(4.88)
  Δ change of Psychopathology PANSS_POS: −5.71(4.35)
[3]; European ancestry, Pearl 3, n=99, lurasidone 80/160 mg/d
  Δ change of Psychopathology PANSS_TOT: −21.95(18.15)
[3]; PEARL 1, 2 and 3 studies
  overall mean percentage of patients who achieved a priori determined response: ≥20% improvement in ΔPANSS-TOTLOCF6WK: 61%
[4]
  side effect profile: relatively benign side effect profile
